# Experiment: recovery in urine of mice after oral administration (paper-disc assay)
# Type: in vivo, mice of ICR-strain
# Conditions: ICR mice, male, 0.5 mg per mouse oral; 0-4 h; molar %, as free carboxylic acid; averaged
# Text: Thus, some tests were made to evaluate the amount or rate of the cephalosporin compound of this invention which can be recovered as the antibacterially active compound from the urine after it was orally given to mice.
# The test compounds estimated in this test for their rate of recovery from urine are Compounds Nos. 2, 4, 6, 8, 10, 12, 14, 16, 18, 20, 22, 24, 26, 28, 30, 32, 34, 36 and 38 identified hereinbefore which are the particular examples of the cephalosporin derivative of general formula (I) of this invention and which are in the form of the pivaloyloxymethyl ester.
# To mice of ICR-strain (male, 4-weeks-aged, five mice in each group) was orally administered the test compound identified above at a dosage of 0.5 mg per mouse. By the end of 4 hours after the administration of the test compound, all the amounts of the urine excreted by the treated mice were collected together, and the total quantity of the cephalosporin compound of this invention (as the free carboxylic acid form) in the urine so collected was determined according to a paper-disc assay method using Escherichia coli K-12 8236 strain as the assay strain. […]
compound,measurement,value
"CC(C)(C)C(=O)OCOC(=O)C1=C(SCC2CCOCC2)CS[C@@H]2C(NC(=O)/C(=N\O)c3csc(N)n3)C(=O)N12 (stereo partly shown) [Compound No. 38, pivaloyloxymethyl 7-[(Z)-2-(2-aminothiazol-4-yl)-2-hydroxyiminoacetamido]-3-(tetrahydropyran-4-yl) methylthio-3-cephem-4-carboxylate]",Rate of recovery of test compound remaining in urine collected during 0 to 4 hours after oral administration,Less than detectable amount

# — patent publication US5332731A, “Cephalosporin derivatives” (Meiji Seika Kaisha, Ltd., priority 1989, dated 1994)
